Literature values, collected in patent publication US10716831B2, “Methods for inhibiting infectious peritonitis” (priority 2014, dated 2020).

How the values were obtained:
[1] = in vivo
[2] = intraperitoneal compared with intravenous administration; Tobudic et al 2012
[3] = tested on: Klebsiella and Enterobacter spp.
[4] = tested on: polymorphonuclear leukocytes
[5] = tested on: bacteria of the B. fragilis group
[6] = tested on: Staphylococcus, Streptococcus, Neisseria, Escherichia, Proteus, Serratia, Salmonella, Shigella, Pseudomonas, Haemophilus and Vibrio; conditions: aerobic genera
[7] = tested on: resistant bacterial strains; conditions: controlled clinical trials, orally or intravenously administered; overall
infectious peritonitis = conditions: combination with imipenem; Pachón-Ibáñez et al 2011
Pseudomonas aeruginosa = conditions: controlled clinical trials, orally or intravenously administered, maximum
[8] = tested on: Peptostreptococcus (including Peptoniphilus, Finegoldia and Anaerococcus) and Fusobacterium; conditions: anaerobic genera
[9] = tested on: strains of organisms from the susceptible genera
[10] = not given; remark: listed apart in the source
monocytes = conditions: in vitro; Volk et al 1991
[11] = tested on: non-traumatic generalized abdominal sepsis; conditions: subcutaneous, with systemic antibiotics; Orozco et al 2006
[12] = tested on: cecal ligation and puncture; conditions: mice, subcutaneous injection; Gennari et al 1994
[13] = third and last day of treatment
peritoneal macrophages = conditions: intraperitoneal; Selgas et al 1996
bacterial peritonitis = conditions: mice, intraperitoneal for 5 days; Austin et al 1995
fecal peritonitis = conditions: mice, prophylactic administration; Barsig et al 1996
[14] = tested on: peritonitis induced by cecal ligation and puncture; conditions: rats, systemic; Toda et al 1994

C[C@@H]1O[C@@H]1P(=O)(O)O [Fosfomycin disodium]
solubility in water: highly soluble in water
pH of 5% solution: 9.0-10.5
local or oral tolerability [1]: locally irritant if un-neutralized

C[C@@H]1O[C@@H]1P(=O)(O)O.NC(CO)(CO)CO [Fosfomycin trometamol]
solubility in water: highly soluble in water
pH of 5% solution: 3.5-5.5
local or oral tolerability [1]: well tolerated when given orally

C[C@@H]1O[C@@H]1P(=O)(O)O [fosfomycin, [(2R,3S)-3-methyloxiran-2-yl]phosphonic acid]
intraperitoneal levels [2]: superior intraperitoneal levels
antibacterial activity [3]: active
concentration in polymorphonuclear leukocytes relative to extracellular fluid [4]: twice those of the extracellular fluid
antibacterial activity [5]: not against
antibacterial activity [6]: highly active
appearance of resistant bacterial strains [7]: 3.0%
synergy and in-vivo efficacy with imipenem (infectious peritonitis): showed synergy and high in-vivo efficacy
appearance of resistant bacterial strains (Pseudomonas aeruginosa): 15%
antibacterial activity [8]: active
tested strains showing synergistic effect ([9]; early studies, various antibiotic combinations): 70-100%
synergy rates ([9]; subsequent more extensive studies): 36-74%
eosinophilia ([10]; Gobernado 2003): 0.2%
transient rashes (allergy) ([10]; Gobernado 2003): 0.3 % of cases
transiently raised liver enzymes ([10]; Gobernado 2003): 0.3 % of cases
toxicity to mammalian cells and organs ([10]; fosfomycin disodium at intravenous doses of up to 0.5 g/kg/day in human patients): remarkably non-toxic

GM-CSF: cytokine of the colony-stimulating factor family; mature human protein SEQ ID NO: 2
loss of HLA-DR antigen expression to <20% (monocytes): reversed
rate of infectious complications and length of hospitalization [11]: reduced
mortality [12]: significantly reduced
minor flu-like symptoms [13]: 2 of 8
peritoneal macrophage numbers (peritoneal macrophages): large increase
peritoneal transport of water or solutes (peritoneal macrophages): did not affect
survival (bacterial peritonitis): improved survival

B1: recombinant murine GM-CSF: recombinant murine GM-CSF used in rat and mouse peritonitis studies (protein, UniProt P01587 18-141, looked up)
Granulocyte-macrophage …: APTRSPITVTRPWKHVEAIKEALNLLDDMPVTLNEEVEVVSNEFSFKKLTCVQTRLKIFEQGLRGNFTKLKGALNMTASYYQTYCPPTPETDCETQVTTYADFIDSLKTFLTDIPFECKKPGQK
leukocyte numbers and protection (fecal peritonitis): neither augmented leukocyte numbers nor protected mice
survival rate [14]: did not improve
